# Reference: patent US9695155B2, “Herbicidal substituted pyrimidinyloxy benzene compounds” (E. I. DU PONT DE NEMOURS AND COMPANY, priority 2013, dated 2017)
# What was measured:
# lambsquarters [1] = experiment: Test C preemergence; format: in vivo, Chenopodium album; conditions: for Lambsquarters plant response rating: preemergence; for Plant response rating, Lambsquarters: Preemergence, 62 g ai/ha, scale 0 to 100, 0 no effect, 100 complete control
# Procedure, shortened: (§1)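 Rated visually on 0–100 (100 = complete control) after 13–15 days under glass. Treatments went onto freshly seeded loam/sand soil or onto emerged plants at the 1- to 4-leaf stage, using a surfactant-containing solvent formulation.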
# waterhemp = experiment: Test C preemergence; format: in vivo, Amaranthus rudis; conditions: for Waterhemp plant response rating: preemergence; for Plant response rating, Waterhemp: Preemergence, 62 g ai/ha, scale 0 to 100, 0 no effect, 100 complete control
# Procedure, shortened: as §1
# lambsquarters [2] = experiment: Test C postemergence; format: in vivo, Chenopodium album; conditions: for Lambsquarters plant response rating: 31 g ai/ha; for Lambsquarters plant response rating / Plant response rating, Lambsquarters: scale 0 to 100 (0 no effect, 100 complete control)
# Procedure, shortened: as §1
# ragweed = experiment: Test C preemergence; format: in vivo, Ambrosia elatior; conditions: for Ragweed plant response rating: preemergence; for Plant response rating, Ragweed: Preemergence, 62 g ai/ha, scale 0 to 100, 0 no effect, 100 complete control
# Procedure, shortened: as §1
# wheat = experiment: Test A preemergence; format: in vivo, Triticum aestivum; conditions: for Wheat plant response rating (0 to 100 scale): 125 g ai/ha; for Wheat plant response rating: 500 g ai/ha, 0 to 100 scale where 0 is no effect and 100 is complete control
# Procedure, shortened: (§2)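 Pre- and postemergence greenhouse screen. Soil: loam + sand. Spray carrier: solvent mixture, non-phytotoxic, with surfactant. Post timing at 1–2 leaves, height 2–10 cm. Readout: visual injury on a 0–100 scale roughly 10 days after application, untreated plants as reference.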
# kochia = experiment: Test C postemergence; format: in vivo, Kochia scoparia; conditions: for Kochia plant response rating: 31 g ai/ha; for Kochia plant response rating / Plant response rating, Kochia: scale 0 to 100 (0 no effect, 100 complete control)
# Procedure, shortened: as §1
# yellow nutsedge = experiment: Test C preemergence; format: in vivo, Cyperus esculentus; conditions: for Nutsedge, Yellow plant response rating: preemergence; for Plant response rating, Nutsedge, Yellow: Preemergence, 62 g ai/ha, scale 0 to 100, 0 no effect, 100 complete control
# Procedure, shortened: as §1
# velvetleaf = experiment: Test A postemergence; format: in vivo, Abutilon theophrasti; conditions: 0 to 100 scale where 0 is no effect and 100 is complete control; for Velvetleaf plant response rating: 125 g ai/ha; for Plant response rating, Velvetleaf: 500 g ai/ha
# Procedure, shortened: as §2
# large (Lg) crabgrass = experiment: Test A postemergence; format: in vivo, Digitaria sanguinalis; conditions: 0 to 100 scale where 0 is no effect and 100 is complete control; for Crabgrass, Large plant response rating: 125 g ai/ha; for Plant response rating, Crabgrass, Large: 500 g ai/ha
# Procedure, shortened: as §2
# giant foxtail = experiment: Test A postemergence; format: in vivo, Setaria faberii; conditions: 0 to 100 scale where 0 is no effect and 100 is complete control; for Foxtail, Giant plant response rating: 125 g ai/ha; for Plant response rating, Foxtail, Giant: 500 g ai/ha
# Procedure, shortened: as §2
# corn = experiment: Test A postemergence; format: in vivo, Zea mays; conditions: 0 to 100 scale where 0 is no effect and 100 is complete control; for Corn plant response rating: 125 g ai/ha; for Plant response rating, Corn: 500 g ai/ha
# Procedure, shortened: as §2
# galium = experiment: Test C postemergence; format: in vivo, Galium aparine; conditions: for Galium plant response rating: 31 g ai/ha; for Galium plant response rating / Plant response rating, Galium: scale 0 to 100 (0 no effect, 100 complete control)
# Procedure, shortened: as §1
# pigweed [3] = experiment: Test C preemergence; format: in vivo, Amaranthus retroflexus; conditions: for Pigweed plant response rating: preemergence; for Plant response rating, Pigweed: Preemergence, 62 g ai/ha, scale 0 to 100, 0 no effect, 100 complete control
# Procedure, shortened: as §1
# morningglory = experiment: Test C postemergence; format: in vivo, Ipomoea coccinea; conditions: for Morningglory plant response rating: 31 g ai/ha; for Morningglory plant response rating / Plant response rating, Morningglory: scale 0 to 100 (0 no effect, 100 complete control)
# Procedure, shortened: as §1
# pigweed [4] = experiment: Test A preemergence; format: in vivo, Amaranthus retroflexus; conditions: for Pigweed plant response rating (0 to 100 scale): 125 g ai/ha; for Pigweed plant response rating: 500 g ai/ha, 0 to 100 scale where 0 is no effect and 100 is complete control
# Procedure, shortened: as §2
# [5] = 125 g ai/ha, scale 0 (no effect) to 100 (complete control)
# [6] = 250 g ai/ha, scale 0 (no effect) to 100 (complete control)
# [7] = postemergence, visual rating, 13 to 15 days
# [8] = 125 g ai/ha, postemergence, visual rating
# [9] = Postemergence, 62 g ai/ha, 13 to 15 days
# [10] = 16 g ai/ha, scale 0 to 100 (0 no effect, 100 complete control)
# [11] = 16 g ai/ha, postemergence, 0 is no effect, 100 is complete control
compound,measurement,setting,value
N#Cc1cccc(Oc2ncc(Cl)cn2)c1-n1cc(I)cn1 [Compound 204],Lambsquarters plant response rating,lambsquarters [1]; [5],95
same,Lambsquarters plant response rating,lambsquarters [1]; [6],98
same,"Plant response rating, Lambsquarters",lambsquarters [1],98
same,Waterhemp plant response rating,waterhemp; [5],100
same,Waterhemp plant response rating,waterhemp; [6],98
same,"Plant response rating, Waterhemp",waterhemp,100
same,Lambsquarters plant response rating,lambsquarters [2]; [7],85
same,"Plant response rating, Lambsquarters",lambsquarters [2]; [8],90
same,"Plant response rating (0 to 100), Lambsquarters","lambsquarters [2]; 250 g ai/ha, postemergence",95
same,"Plant response rating, Lambsquarters",lambsquarters [2]; [9],80
same,Ragweed plant response rating,ragweed; [5],5
same,Ragweed plant response rating,ragweed; [6],85
same,"Plant response rating, Ragweed",ragweed,5
same,Wheat plant response rating (0 to 100 scale),wheat,40
same,Wheat plant response rating,wheat,60
same,Kochia plant response rating,kochia; [7],90
same,"Plant response rating, Kochia",kochia; [8],100
same,"Plant response rating (0 to 100), Kochia","kochia; 250 g ai/ha, postemergence",100
same,"Plant response rating, Kochia",kochia; [9],100
same,"Nutsedge, Yellow plant response rating",yellow nutsedge; [5],60
same,"Nutsedge, Yellow plant response rating",yellow nutsedge; [6],60
same,"Plant response rating, Nutsedge, Yellow",yellow nutsedge,0
same,Velvetleaf plant response rating,velvetleaf,100
same,"Plant response rating, Velvetleaf",velvetleaf,100
same,"Crabgrass, Large plant response rating",large (Lg) crabgrass,90
same,"Plant response rating, Crabgrass, Large",large (Lg) crabgrass,100
same,"Foxtail, Giant plant response rating",giant foxtail,80
same,"Plant response rating, Foxtail, Giant",giant foxtail,100
same,Corn plant response rating,corn,50
same,"Plant response rating, Corn",corn,60
same,Galium plant response rating,galium; [7],70
same,"Plant response rating, Galium",galium; [8],75
same,"Plant response rating (0 to 100), Galium","galium; 250 g ai/ha, postemergence",100
same,"Plant response rating, Galium",galium; [9],75
same,Pigweed plant response rating,pigweed [3]; [5],98
same,Pigweed plant response rating,pigweed [3]; [6],98
same,"Plant response rating, Pigweed",pigweed [3],100
same,Morningglory plant response rating,morningglory; [7],60
same,"Plant response rating, Morningglory",morningglory; [8],98
same,"Plant response rating (0 to 100), Morningglory","morningglory; 250 g ai/ha, postemergence",95
same,"Plant response rating, Morningglory",morningglory; [9],65
same,Pigweed plant response rating (0 to 100 scale),pigweed [4],100
same,Pigweed plant response rating,pigweed [4],100
N#Cc1cnn(-c2c(Oc3ncc(Cl)cn3)cccc2C(F)F)c1 [Compound 236],Lambsquarters plant response rating,lambsquarters [1]; [10],98
same,Lambsquarters plant response rating,lambsquarters [1]; [5],100
same,"Plant response rating, Lambsquarters",lambsquarters [1],100
same,Waterhemp plant response rating,waterhemp; [10],98
same,Waterhemp plant response rating,waterhemp; [5],100
same,"Plant response rating, Waterhemp",waterhemp,98
same,"Plant response rating (0 to 100), Lambsquarters",lambsquarters [2]; [11],80
same,Lambsquarters plant response rating,lambsquarters [2]; [7],85
same,"Plant response rating, Lambsquarters",lambsquarters [2]; [8],90
same,"Plant response rating, Lambsquarters",lambsquarters [2]; [9],75
same,Ragweed plant response rating,ragweed; [10],15
same,Ragweed plant response rating,ragweed; [5],90
same,"Plant response rating, Ragweed",ragweed,85
same,Wheat plant response rating (0 to 100 scale),wheat,0
same,Wheat plant response rating,wheat,100
same,"Plant response rating (0 to 100), Kochia",kochia; [11],30
same,Kochia plant response rating,kochia; [7],80
same,"Plant response rating, Kochia",kochia; [8],90
same,"Plant response rating, Kochia",kochia; [9],85
same,"Nutsedge, Yellow plant response rating",yellow nutsedge; [10],0
same,"Nutsedge, Yellow plant response rating",yellow nutsedge; [5],75
same,"Plant response rating, Nutsedge, Yellow",yellow nutsedge,60
same,Velvetleaf plant response rating,velvetleaf,90
same,"Plant response rating, Velvetleaf",velvetleaf,100
same,"Crabgrass, Large plant response rating",large (Lg) crabgrass,80
same,"Plant response rating, Crabgrass, Large",large (Lg) crabgrass,100
same,"Foxtail, Giant plant response rating",giant foxtail,90
same,"Plant response rating, Foxtail, Giant",giant foxtail,100
same,Corn plant response rating,corn,70
same,"Plant response rating, Corn",corn,100
same,"Plant response rating (0 to 100), Galium",galium; [11],60
same,Galium plant response rating,galium; [7],75
same,"Plant response rating, Galium",galium; [8],85
same,"Plant response rating, Galium",galium; [9],80
same,Pigweed plant response rating,pigweed [3]; [10],100
same,Pigweed plant response rating,pigweed [3]; [5],100
same,"Plant response rating, Pigweed",pigweed [3],100
same,"Plant response rating (0 to 100), Morningglory",morningglory; [11],10
same,Morningglory plant response rating,morningglory; [7],45
same,"Plant response rating, Morningglory",morningglory; [8],75
same,"Plant response rating, Morningglory",morningglory; [9],70
same,Pigweed plant response rating (0 to 100 scale),pigweed [4],100
same,Pigweed plant response rating,pigweed [4],100
